A short description of data set [1]: Resistance to protease degradation in rat plasma (RP-HPLC peak). The format is in vitro ADME. Particulars: 37° C., 24 hours compared to 0 hours, FIG. 6. The protocol:
To confirm that the peptides of the embodiments are resistant to protease degradation compared to VIpep-3, VIpep-3 or representative peptides of the embodiments (Seq-1, Seq-6, Seq-9, or Seq-10) were mixed in rat plasma, and after a certain incubation time, the residual amount of the peptide was evaluated by the presence or absence of peaks on RP-HPLC. To 1 μL of each 10 mM peptide, 20 μL of rat plasma was added, and incubated at 37° C. for an arbitrary time (0 or 24 hours). Then, for VIpep-3, 80% acetonitrile, for the other peptides, 200 μL each of acetonitrile was added, mixed well, placed on ice for 10 minutes, and centrifuged at 15,000 rpm at 4° C. for 10 minutes to remove plasma proteins.

The target in data set [2] is T1, VIPR2 (Homo sapiens, UniProt P41587).
T1 sequence (P41587 24-438): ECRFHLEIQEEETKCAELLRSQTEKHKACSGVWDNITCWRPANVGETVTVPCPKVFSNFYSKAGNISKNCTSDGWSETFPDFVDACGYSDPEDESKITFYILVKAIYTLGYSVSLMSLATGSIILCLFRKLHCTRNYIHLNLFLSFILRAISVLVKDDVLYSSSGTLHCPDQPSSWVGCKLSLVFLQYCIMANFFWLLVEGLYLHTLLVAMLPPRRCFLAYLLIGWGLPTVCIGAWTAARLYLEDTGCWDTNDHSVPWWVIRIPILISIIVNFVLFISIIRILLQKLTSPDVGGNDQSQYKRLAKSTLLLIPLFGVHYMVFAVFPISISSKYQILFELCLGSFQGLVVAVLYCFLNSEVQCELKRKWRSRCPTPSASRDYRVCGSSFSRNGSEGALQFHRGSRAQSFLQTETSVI
Briefly: Change in intracellular calcium concentration in VIPR2-expressing cells (Fluo-8), peptide co-added with VIP. The format is cell-based. More on the design: host or cells: purchased human VIPR2-expressing cell line. The following applies: VIP 150 nM, peptide 750 nM co-added, FIG. 5. How it is done:
One of the downstream signals of VIPR2 is known to be changes in intracellular calcium concentration. Human VIPR2-expressing cell line (Catalog No. HTS079RTA, manufactured by Eurofins) was treated with Scree Quest™ Fluo-8 No Wash Calcium Assay Kit (Catalog No. 36315, AAT Bioquest) to introduce Fluo-8, an indicator reagent to measure changes in intracellular calcium concentration by fluorescence. The natural ligand VIP (150 nM final concentration) and VIpep-3 (final concentration 750 nM) or representative examples of the peptides of the embodiments (Seq-1, Seq 5-9) (final concentration 750 nM) were co-added and changes in fluorescence intensity were observed over time using fluorescence microscopy. The difference between the fluorescence intensity before the addition of VIP and the strongest fluorescence intensity after the addition of VIP was taken as 100% and compared to the difference in fluorescence intensity when VIpep-3 or the inventive peptide was co-added.

In data set [3] the target is T2, VIPR2 (Mus musculus, UniProt P41588).
T2 construct: from tissue; host or cells: prefrontal cortex of ICR mice, 12 days old, male
T2 sequence (P41588 23-437): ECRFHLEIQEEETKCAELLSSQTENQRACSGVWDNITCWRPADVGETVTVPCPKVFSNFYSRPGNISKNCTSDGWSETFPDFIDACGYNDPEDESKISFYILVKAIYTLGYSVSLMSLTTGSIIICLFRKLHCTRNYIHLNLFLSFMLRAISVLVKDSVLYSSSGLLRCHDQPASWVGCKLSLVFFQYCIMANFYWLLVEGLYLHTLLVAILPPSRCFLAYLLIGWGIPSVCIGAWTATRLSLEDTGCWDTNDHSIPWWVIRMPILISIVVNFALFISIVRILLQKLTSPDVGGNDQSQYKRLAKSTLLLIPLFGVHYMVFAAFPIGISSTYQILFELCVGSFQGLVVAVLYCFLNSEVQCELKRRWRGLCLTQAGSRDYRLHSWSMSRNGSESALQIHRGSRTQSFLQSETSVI
As to the kind of experiment: VIPR2 antagonist activity in vivo: CREB phosphorylation in prefrontal cortex (Western blotting). Particulars: ICR mice 12 days old, male, s.c., Ro25-1553 0.4 nmol/g with peptide 1 or 10 nmol/g, 1 hour, FIG. 8. How it is done:
Ro25-1553 (Peptide Institute, Inc.) which is an analog of VIP and a selective agonist for VIPR2, was dissolved in PBS (0.4 nmol/g body weight), and then mixed at 9:1 with the representative example of the inventive peptide (Seq-10) dissolved in DMSO (1 nmol/g body weight or 10 nmol/g body weight) or DMSO (vehicle group) (at a final concentration of DMSO is 10%). These solutions were administered subcutaneously to ICR mice (12 days old, male). 1 hour later, brains were removed, prefrontal cortex was dissected, and the phosphorylation of intracellular cyclic AMP response sequence-binding protein (CREB) (one of the downstream signals of VIPR2) in the cells was evaluated by Western blotting. The antibodies used for Western blotting were anti-phosphorylated CREB antibody (#9198) and anti-CREB antibody (#9197) purchased from Cell Signaling Technology.

Data set [4] concerns ICR mice. As to the kind of experiment: Novel object recognition test. Particulars: Ro25-1553 0.07 nmol/g mixed with peptide 1 nmol/g, FIG. 9B. The format is in vivo. The protocol:
We evaluated whether the peptide could improve the recognition function to novel objects, which is reduced by the activation of VIPR2. Ro25-1553 (Peptide Institute, Inc.) an analog of VIP and a selective agonist for VIPR2, was dissolved in PBS (0.07 nmol/g body weight), and then mixed at 99:1 with a representative example of the inventive peptide (Seq-10) dissolved in DMSO (1 nmol/g body weight) or DMSO (Vehicle group) (1% final concentration of DMSO). These solutions were administered subcutaneously once daily to male ICR mice on postnatal day 1 for 14 days, the mice were continuously bred and subjected to a novel object recognition test at 8 weeks of age. The novel object recognition test was conducted during the light period (8:00-20:00) according to Non-Patent Literature 12. First, test cages (30 cm×30 cm×35 cm) made of acrylic-modified polyvinyl chloride were placed in a soundproofed laboratory at an illumination level of 30 lux and covered only with wooden sterilized soft chips (Sankyo Lab Service Co.). […] The animals' behavior during the training and test trials was video-recorded, and the search time for each of the two objects was measured. The discrimination index was calculated as the ratio (%) of the search time difference between object c and object a to the total search time in the test trial.

In data set [5] the target is T1, VIPR2. Briefly: Selective antagonist activity: intracellular calcium change (FLIPR Tetra) in VIPR1-, VIPR2- or PAC1-expressing cells. The format is cell-based. More on the design: host or cells: VIPR2-expressing cells. The protocol:
A representative example of any concentration of the inventive peptide (Seq-10) was added to cells expressing VIPR1-expressing cells, VIPR2-expressing cells, or PAC1-expressing cells all of which have been transfected with intracellular calcium concentration indicator and incubated for 30 minutes. Then, VIPR1 cells and VIPR 2 cells were treated with VIP (25 nM and 150 nM, respectively), and PAC1 cells were treated with PACAP (35 nM). The change in intracellular calcium concentration for 2 minutes immediately after the addition thereof was measured by FLIPR Tetra. The inhibition rate of the antagonist peptides was calculated, assuming that the change in intracellular calcium concentration when only the ligand for VIP or PACAP was added was defined as 0% inhibition, and the change in intracellular calcium concentration when both the antagonist peptide and the ligand were not added was defined as 100%.

Data set [6] has as its target T3, extracellular domain of human VIPR2 (Homo sapiens, UniProt P41587).
T3 sequence (P41587 24-124 limits assumed): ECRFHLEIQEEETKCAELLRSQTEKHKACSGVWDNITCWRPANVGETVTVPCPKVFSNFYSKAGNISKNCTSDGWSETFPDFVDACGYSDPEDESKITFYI
Particulars: recombinant protein, Non-Patent Literature 8; cited from earlier work.

Data set [7] has as its target T1, VIPR2. More on the design: host or cells: VIPR2-expressing cells. Particulars: cellular studies, Non-Patent Literature 8; cited from earlier work.

The values that follow come from patent US20230174582A1, “VIPR2 ANTAGONIST PEPTIDE” (ICHIMARU PHARCOS CO., LTD, priority 2020, published 2023).

“Also recorded” adds a separate entry of the source. Starred links: 1 amine or outer side, 2 acyl side, 3 side chain; linkers in the order of their positions; H or OH if unused. Positions of bridges follow the written chain, without caps; N, C: chain ends. Non-standard residues stand in square brackets, D forms with d. Residues, ends and D or L forms follow the SMILES beside them. TBMB = c1c(C[*:1])cc(C[*:3])cc1C[*:2]; mXylylene = c1cc(C[*:1])cc(C[*:2])c1; NMeY = CN[C@@H](Cc1ccc(O)cc1)C(=O)O; Dap = NC[C@H](N)C(=O)O; Mpa = O=C(O)CCS; Sar = CNCC(=O)O

For the molecule `CC[C@H](C)[C@H](NC(=O)[C@H](CC(C)C)NC(=O)[C@@H]1CC(=O)NCCCC[C@@H]2NC(=O)[C@@H]3CCCN3C(=O)[C@H](CC(C)C)NC(=O)[C@H](Cc3ccc(O)cc3)N(C)C(=O)CCSCc3cccc(c3)CSC[C@H](NC(=O)[C@H](CC(C)C)NC(=O)[C@H](Cc3ccc(O)cc3)NC2=O)C(=O)N1)C(N)=O` [Seq-6, c(Mpa-NmeTyr-Leu-Pro-c[Lys-Tyr-Leu-Cys)-Asp]-Leu-Ile-NH2] ([Mpa][NMeY]LPKYLCDLI-NH2; linker 1-8 via mXylylene; lactam 5-9), the “resistance to protease degradation: peptide-derived RP-HPLC peak after incubation in rat plasma” value (“resistance to protease degradation” for short) in data set [1] is reported as “resistance to protease degradation; also recorded: remained almost the same”. The “inhibition of the receptor-activating activity of VIP on VIPR2 (antagonist activity, intracellular calcium)” value in data set [2] is “antagonist activity”.

Take “c(Mpa-Pro-Pro-Tyr-Leu-Pro-c[Lys-Tyr-Leu-Cys)-Asp]-Leu-Ile-NH2 ([Mpa]PPYLPKYLCDLI-NH2; disulfide (positions not given here); lactam 7-11; not fully specified (bridges)) [Seq-1, cyclization S-S(1-10)/amide(7-11)]”: in data set [1], the “resistance to protease degradation” value was “resistance to protease degradation; also recorded: remained almost the same”. The “inhibition of the receptor-activating activity of VIP on VIPR2 (antagonist activity, intracellular calcium)” value in data set [2] is listed as “antagonist activity; also recorded: inhibit the receptor-activating activity of VIP on VIPR2”.

With `CC[C@H](C)[C@H](NC(=O)[C@H](CC(C)C)NC(=O)[C@@H]1CC(=O)NCCCC[C@@H]2NC(=O)[C@@H]3CCCN3C(=O)[C@H](CC(C)C)NC(=O)[C@H](Cc3ccc(O)cc3)NC(=O)[C@@H]3CCCN3C(=O)[C@@H]3CCCN3C(=O)[C@@H](NC(C)=O)CSSC[C@H](NC(=O)[C@H](CC(C)C)NC(=O)[C@H](Cc3ccc(O)cc3)NC2=O)C(=O)N1)C(N)=O` [Seq-10, Ac-c(Cys-Pro-Pro-Tyr-Leu-Pro-c[Lys-Tyr-Leu-Cys)-Asp]-Leu-Ile-NH2] (Ac-CPPYLPKYLCDLI-NH2; disulfide 1-10; lactam 7-11), in data set [1], the “resistance to protease degradation” value is given as “resistance to protease degradation; also recorded: remained almost the same”. The “phosphorylation of CREB in prefrontal cortex” value in data set [3] is given as “clearly inhibited”. The “recognition of novel objects versus Ro25-1553 alone (discrimination index)” value in data set [4] (s.c. once daily 14 days from postnatal day 1, test at 8 weeks, p less than 0.001 (Student's t-test)) is listed as “significant improvement”. In addition, in data set [4] (s.c. once daily 14 days, test at 8 weeks), the “recognition function compared with normal mice” value was “almost the same as that of normal mice”. Also, the “antagonist activity against VIP-VIPR2 interaction versus VIP-VIPR1 or PACAP-PAC1 interactions (selectivity)” value in data set [5] (peptide preincubated 30 minutes, VIP 25 nM (VIPR1), VIP 150 nM (VIPR2), PACAP 35 nM (PAC1), FIG. 7) is “significantly strong against VIP-VIPR2 interaction than those against VIP-VIPR1 or PACAP-PAC1 interactions”. For the same molecule, in data set [5] (summary statement, Seq-10 tested with VIP 150 nM, FLIPR Tetra), the “antagonist activity against VIPR2-expressing cells” value was “antagonist activity”.

For `CC(=O)N[C@H]1CSSC[C@@H](C(=O)N[C@H](C(=O)N[C@@H](CC(C)C)C(=O)N[C@@H](CC(C)C)C(=O)N[C@@H](CC(C)C)C(=O)N[C@@H](CCCNC(=N)N)C(=O)N[C@@H](CO)C(=O)O)[C@@H](C)O)NC(=O)[C@H](CC(C)C)NC(=O)[C@H](CCCNC(=N)N)NC(=O)[C@H](CCCNC(=N)N)NC(=O)[C@@H]2CCCN2C(=O)[C@H](CC(C)C)NC(=O)[C@H](Cc2ccc(O)cc2)NC(=O)[C@@H]2CCCN2C(=O)[C@@H]2CCCN2C1=O` [VIpep-3, Ac-c(Cys-Pro-Pro-Tyr-Leu-Pro-Arg-Arg-Leu-Cys)-Thr-Leu-Leu-Leu-Arg-Ser-OH] (Ac-CPPYLPRRLCTLLLRS-OH; disulfide 1-10), the “resistance to protease degradation” value in data set [1] is “greatly reduced”. For the same molecule, the “binding to VIPR2 extracellular region/domain” value in data set [6] is recorded as “tightly binds”. The “inhibition of VIP and PACAP signaling pathway through VIPR2” value in data set [7] was “inhibits”. In addition, the “inhibition of the receptor-activating activity of VIP on VIPR2 (antagonist activity, intracellular calcium)” value in data set [2] is recorded as “inhibit the receptor-activating activity of VIP on VIPR2”.

Take “c(Mpa-NmeTyr-Leu-NmeGly-c(Cys)-Tyr-Leu-Cys)-Dap-Leu-Ile-NH2 ([Mpa][NMeY]L[Sar]CYLC[Dap]LI-NH2; linker (positions not given here) via TBMB; not fully specified (bridges)) [Seq-9, cyclization TBMB(1-5-8)]”: in data set [1], the “resistance to protease degradation” value was “resistance to protease degradation; also recorded: remained almost the same”. For the same molecule, the “inhibition of the receptor-activating activity of VIP on VIPR2 (antagonist activity, intracellular calcium)” value in data set [2] is “antagonist activity”.
